# In ChEMBL document CHEMBL1201862, “PubChem BioAssay data set” (2004):
#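 All cell lines were grown in 96-well plates and treated with compound for 48 hours. At the GI50, growth is halved.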 The source made the active and inactive calls. Cut-off read from the data, not from the text of the source: active = GI50 up to about 1.1 µM and inactive = higher.
# What was measured:
# Experiment in all cases: NCI tumour cell line growth inhibition, 48 h
# CCRF-CEM = system: CCRF-CEM
# COLO 205 = system: COLO 205
# EKVX = system: EKVX
# HCT-15 = system: HCT-15
# HOP-92 = system: HOP-92
# LOX IMVI = system: LOX IMVI
# M14 = system: M14
# MOLT-4 = system: MOLT-4
# NCI-H226 = system: NCI-H226
# NCI-H460 = system: NCI-H460
# NCI-H522 = system: NCI-H522
# NCI/ADR-RES = system: NCI/ADR-RES
# OVCAR-8 = system: OVCAR-8
# SK-MEL-28 = system: SK-MEL-28
# SK-MEL-2 = system: SK-MEL-2
# SW-620 = system: SW-620
# U-251 = system: U-251
# UO-31 = system: UO-31
# MCF7 = system: MCF7
Structure (SMILES),GI50 (CCRF-CEM),GI50 (COLO 205),GI50 (EKVX),GI50 (HCT-15) [µM],GI50 (HOP-92),GI50 (LOX IMVI),GI50 (M14),GI50 (MOLT-4),GI50 (NCI-H226),GI50 (NCI-H460),GI50 (NCI-H522),GI50 (NCI/ADR-RES),GI50 (OVCAR-8),GI50 (SK-MEL-28),GI50 (SK-MEL-2),GI50 (SW-620),GI50 (U-251),GI50 (UO-31),GI50 (MCF7)
COC(=O)Cc1c(C2=Nc3ccccc3C2(O)CC(=O)OC)[nH]c2ccccc12 (stereo not given),20.1 µM (inactive),20.3 µM (inactive),36.6 µM (inactive),40.9,26.5 µM (inactive),99.3 µM (inactive),78.2 µM (inactive),19.7 µM (inactive),> 100 µM (inactive),> 100 µM (inactive),18.9 µM (inactive),> 100 µM (inactive),49.3 µM (inactive),61.5 µM (inactive),> 100 µM (inactive),47.3 µM (inactive),34.5 µM (inactive),68.5 µM (inactive),
CCOC(=O)C(C(=O)COC(C)(C)C)[C@@H]1C=C[C@H](OC(C)=O)C1 (stereo not given in full),73.8 µM (inactive),> 100 µM (inactive),> 100 µM (inactive),> 100,,,> 100 µM (inactive),65.2 µM (inactive),> 100 µM (inactive),> 100 µM (inactive),,> 100 µM (inactive),,> 100 µM (inactive),> 100 µM (inactive),> 100 µM (inactive),> 100 µM (inactive),> 100 µM (inactive),> 100 µM (inactive)
COc1ccc2c(c1)[n+]([O-])c(-c1ccc(Br)cc1)c(N)[n+]2[O-],50.4 µM (inactive),18.9 µM (inactive),51.1 µM (inactive),,> 100 µM (inactive),,,36.8 µM (inactive),66.5 µM (inactive),36.3 µM (inactive),15.6 µM (inactive),,37.2 µM (inactive),23.2 µM (inactive),32.4 µM (inactive),40.2 µM (inactive),37.4 µM (inactive),80.2 µM (inactive),
Oc1ccc(Cl)cc1/N=N\c1c(O)ccc2ccccc12,> 100 µM (inactive),> 100 µM (inactive),> 100 µM (inactive),> 100,> 100 µM (inactive),60.7 µM (inactive),> 100 µM (inactive),35 µM (inactive),> 100 µM (inactive),,59.4 µM (inactive),> 100 µM (inactive),> 100 µM (inactive),> 100 µM (inactive),> 100 µM (inactive),> 100 µM (inactive),> 100 µM (inactive),> 100 µM (inactive),
CC(C)N/C(=N\C#N)NS(=O)(=O)c1cnccc1NC1CCCCCCC1,> 100 µM (inactive),> 100 µM (inactive),> 100 µM (inactive),> 100,,,> 100 µM (inactive),> 100 µM (inactive),> 100 µM (inactive),,> 100 µM (inactive),> 100 µM (inactive),> 100 µM (inactive),> 100 µM (inactive),> 100 µM (inactive),> 100 µM (inactive),> 100 µM (inactive),> 100 µM (inactive),> 100 µM (inactive)
O=c1c(-c2ccccc2)c(SCCO)n(-c2ccccc2)c(=S)n1-c1ccccc1,> 100 µM (inactive),> 100 µM (inactive),> 100 µM (inactive),> 100,,> 100 µM (inactive),> 100 µM (inactive),> 100 µM (inactive),> 100 µM (inactive),> 100 µM (inactive),> 100 µM (inactive),> 100 µM (inactive),> 100 µM (inactive),> 100 µM (inactive),> 100 µM (inactive),> 100 µM (inactive),> 100 µM (inactive),> 100 µM (inactive),> 100 µM (inactive)
N#CC(C#N)/N=N/c1ccc(-c2nc3ccccc3o2)cc1,,11.7 µM (inactive),11.7 µM (inactive),14.8,6.81 µM (inactive),13.1 µM (inactive),15.2 µM (inactive),7.82 µM (inactive),,13.9 µM (inactive),5.02 µM (inactive),17.5 µM (inactive),23.6 µM (inactive),6.12 µM (inactive),12.4 µM (inactive),11.2 µM (inactive),14.3 µM (inactive),13 µM (inactive),11.1 µM (inactive)
CN(C)CCCN1c2ccc([N+](=O)[O-])cc2CCc2cccc([N+](=O)[O-])c21,16.7 µM (inactive),12.8 µM (inactive),16.1 µM (inactive),15.5,11 µM (inactive),16.5 µM (inactive),13.7 µM (inactive),15.8 µM (inactive),13.3 µM (inactive),15.5 µM (inactive),17.7 µM (inactive),13.3 µM (inactive),17 µM (inactive),14.8 µM (inactive),18.7 µM (inactive),16.1 µM (inactive),15.3 µM (inactive),,
CC(C)(C)OC(=O)NNC(=O)C1Cc2ccccc2OC1=O (stereo not given),,,> 100 µM (inactive),> 100,,,> 100 µM (inactive),> 100 µM (inactive),> 100 µM (inactive),> 100 µM (inactive),> 100 µM (inactive),> 100 µM (inactive),> 100 µM (inactive),> 100 µM (inactive),> 100 µM (inactive),> 100 µM (inactive),> 100 µM (inactive),> 100 µM (inactive),
CCN(CC)c1ccc(/N=C2/C=CC(=C(C#N)C#N)c3ccccc32)c(C)c1,1.18 µM (inactive),2.64 µM (inactive),3.21 µM (inactive),2.15,0.324 µM (active),1.72 µM (inactive),1.48 µM (inactive),1.96 µM (inactive),,2.55 µM (inactive),,,2.23 µM (inactive),1.64 µM (inactive),2.08 µM (inactive),1.58 µM (inactive),1.56 µM (inactive),2.29 µM (inactive),
CC1C(c2ccc3c(c2)OCO3)c2cc3c(cc2OC1N1CCCCC1)OCO3 (stereo not given),35.2 µM (inactive),36.5 µM (inactive),66.2 µM (inactive),50.4,,82.2 µM (inactive),40.2 µM (inactive),36.7 µM (inactive),,77.8 µM (inactive),31.6 µM (inactive),42 µM (inactive),> 100 µM (inactive),54.8 µM (inactive),33.6 µM (inactive),55 µM (inactive),,77.1 µM (inactive),65.9 µM (inactive)
N#Cc1ccc(CSC2=C(c3ccc(Cl)cc3)S/C(=C3\SC(SCc4ccc(C#N)cc4)=C(c4ccc(Cl)cc4)S3)S2)cc1,> 100 µM (inactive),> 100 µM (inactive),> 100 µM (inactive),> 100,,> 100 µM (inactive),> 100 µM (inactive),> 100 µM (inactive),> 100 µM (inactive),> 100 µM (inactive),> 100 µM (inactive),> 100 µM (inactive),> 100 µM (inactive),> 100 µM (inactive),> 100 µM (inactive),> 100 µM (inactive),> 100 µM (inactive),,> 100 µM (inactive)
COC(=O)NN(C(=O)OC)c1c(-c2ccccc2)nc(SC)n1N,> 100 µM (inactive),> 100 µM (inactive),> 100 µM (inactive),> 100,,> 100 µM (inactive),> 100 µM (inactive),> 100 µM (inactive),> 100 µM (inactive),> 100 µM (inactive),> 100 µM (inactive),> 100 µM (inactive),> 100 µM (inactive),> 100 µM (inactive),> 100 µM (inactive),> 100 µM (inactive),> 100 µM (inactive),> 100 µM (inactive),> 100 µM (inactive)
c1ccc(C(/C(=N/c2ccc(Cc3ccc(/N=C(\C(c4ccccc4)c4ccccc4)N4CC4)cc3)cc2)N2CC2)c2ccccc2)cc1,3.18 µM (inactive),3.27 µM (inactive),10.1 µM (inactive),10.1,,1.53 µM (inactive),14.3 µM (inactive),,14.7 µM (inactive),1.78 µM (inactive),3.14 µM (inactive),9.25 µM (inactive),10.7 µM (inactive),9.46 µM (inactive),7.01 µM (inactive),6.3 µM (inactive),12.7 µM (inactive),2.6 µM (inactive),3.1 µM (inactive)
O=C1CCc2cc(Br)ccc2O1,> 100 µM (inactive),> 100 µM (inactive),3.81 µM (inactive),> 100,24.9 µM (inactive),50.5 µM (inactive),57 µM (inactive),> 100 µM (inactive),> 100 µM (inactive),> 100 µM (inactive),32.7 µM (inactive),,> 100 µM (inactive),> 100 µM (inactive),> 100 µM (inactive),> 100 µM (inactive),30 µM (inactive),,12.6 µM (inactive)
O=C1NN=C(c2ccc(Cl)cc2)CC1C1C(=O)N(c2ccccc2)N=C1c1ccccc1 (stereo not given),26.5 µM (inactive),41.8 µM (inactive),35 µM (inactive),31.3,,18.2 µM (inactive),37.8 µM (inactive),28.1 µM (inactive),31.8 µM (inactive),28.1 µM (inactive),23.6 µM (inactive),40.6 µM (inactive),41.9 µM (inactive),36.7 µM (inactive),25.1 µM (inactive),30.5 µM (inactive),33 µM (inactive),21.5 µM (inactive),40.5 µM (inactive)
COc1ccc(-n2c(C)nc3ccc(NC4OCC(OC(C)=O)C(OC(C)=O)C4OC(C)=O)cc3c2=O)cc1 (stereo not given),,> 100 µM (inactive),> 100 µM (inactive),> 100,,> 100 µM (inactive),,> 100 µM (inactive),> 100 µM (inactive),> 100 µM (inactive),> 100 µM (inactive),> 100 µM (inactive),> 100 µM (inactive),> 100 µM (inactive),> 100 µM (inactive),> 100 µM (inactive),> 100 µM (inactive),> 100 µM (inactive),> 100 µM (inactive)
